Results: publication PMC9532399, “The lysosomal transporter TAPL has a dual role as peptide translocator and phosphatidylserine floppase” (Nature Communications, 2022)
Numbering of substitutions follows the chain as printed. Residues, ends and D or L forms follow the SMILES beside them. *: point of attachment. X1 = CC[N+]1=C(C=CC=CC=C2N(CCCCCC(=O)NCCN3C(=O)CC(*)C3=O)c3ccc(S(=O)(=O)[O-])cc3C2(C)C)C(C)(C)c2cc(S(=O)(=O)O)ccc21

How the values were obtained:
[1] = Aggregation in ATPase reaction buffer; type: physicochemical; settings: addition to the ATPase reaction buffer, data not shown
Experimental: The ATPase activities of proteins obtained after various purification procedures were determined by NADH-coupled spectrophotometric assays. 10 μg of DM-purified or nanodisc-reconstituted protein was added to 140 μL of reaction buffer containing 50 mM HEPES–KOH pH 8.0, 60 μg/mL pyruvate kinase (Roche), 16 μg/mL lactate dehydrogenase (Roche), 10 mM phosphoenolpyruvate (Roche), 0.3 mM NADH, 3 mM ATP, 10 mM MgCl2, and 0.17% (w/v) DM in the presence or absence of 250 μM peptide. For proteins reconstituted into nanodiscs, DM was not added to the reaction buffer. For lipid-stimulated ATPase assays, the thin film of lipids was hydrated in 100 μL of buffer containing 50 mM HEPES–KOH pH 8.0 and 10 mM MgCl2 to yield a 10 mM solution. After sonication of the lipid solution for 10 min to decrease its turbidity, the reaction was initiated by adding varying concentrations of lipids to the mixture. ATP hydrolysis activity was monitored at 37 °C for 3 min by measuring the rate of decline of NADH absorbance at 340 nm. To inhibit ATP hydrolysis, the reaction mixture was incubated with 3 mM AMP-PNP or 8 mM NaF/2 mM BeSO4 for 5 min at RT. The kinetic parameters of ATP hydrolysis were calculated by fitting the initial rates of ATP hydrolysis to the Michaelis–Menten equation using PRISM 4.0 (GraphPad software).

mouse TAPL ΔTMD0 = biological target: T1, mouse TAPL ΔTMD0 (Mus musculus, UniProt Q9JJ59); assay: NADH-coupled ATPase assay, nanodisc-reconstituted ΔTMD0; type: biochemical; settings: POPE nanodiscs, data not shown
T1 construct: thrombin cleavage site (C); eGFP (C); 10XHis (C); made in house; host or cells: Trichoplusia ni High Five (Hi5) insect cells, baculovirus (pVL1393)
T1 sequence (Q9JJ59 143-762): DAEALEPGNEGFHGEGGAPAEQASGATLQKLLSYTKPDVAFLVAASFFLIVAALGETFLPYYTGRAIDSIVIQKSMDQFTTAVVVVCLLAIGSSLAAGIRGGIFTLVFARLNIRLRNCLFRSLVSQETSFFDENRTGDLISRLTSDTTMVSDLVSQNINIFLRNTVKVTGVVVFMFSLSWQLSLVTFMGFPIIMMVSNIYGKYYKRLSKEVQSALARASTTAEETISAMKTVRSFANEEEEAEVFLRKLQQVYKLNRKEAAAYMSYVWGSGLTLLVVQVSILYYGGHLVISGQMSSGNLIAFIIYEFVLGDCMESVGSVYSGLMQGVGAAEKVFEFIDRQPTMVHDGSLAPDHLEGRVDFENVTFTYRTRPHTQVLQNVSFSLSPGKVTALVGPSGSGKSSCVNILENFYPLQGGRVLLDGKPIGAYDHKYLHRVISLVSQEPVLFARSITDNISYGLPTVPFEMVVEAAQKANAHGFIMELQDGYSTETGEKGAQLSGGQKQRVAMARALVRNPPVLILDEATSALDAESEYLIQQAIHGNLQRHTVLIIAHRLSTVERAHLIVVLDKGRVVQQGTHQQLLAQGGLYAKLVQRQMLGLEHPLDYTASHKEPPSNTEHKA
Experimental: […] Each lipid was dissolved in 0.17% (w/v) DM and 0.017% (w/v) CHS and mixed with MSP1 and DM/CHS-purified ΔTMD0 at a molar ratio of 150:4:1. After incubation on ice for 10 min, the mixture was treated with 60 mg of Bio-beads (Bio-Rad) at 4 °C for 4 h to remove detergent. The supernatant was additionally incubated overnight with 120 mg of fresh Bio-Beads at 4 °C. The final supernatant was injected onto a Superdex 200 Increase 10/300 GL column equilibrated with a buffer of 20 mM HEPES–NaOH pH 7.5 and 200 mM NaCl. The elution fractions containing protein-loaded nanodiscs were pooled and used for cryo-EM and functional analyses.
The ATPase activities of proteins obtained after various purification procedures were determined by NADH-coupled spectrophotometric assays. 10 μg of DM-purified or nanodisc-reconstituted protein was added to 140 μL of reaction buffer containing 50 mM HEPES–KOH pH 8.0, 60 μg/mL pyruvate kinase (Roche), 16 μg/mL lactate dehydrogenase (Roche), 10 mM phosphoenolpyruvate (Roche), 0.3 mM NADH, 3 mM ATP, 10 mM MgCl2, and 0.17% (w/v) DM in the presence or absence of 250 μM peptide. […] ATP hydrolysis activity was monitored at 37 °C for 3 min by measuring the rate of decline of NADH absorbance at 340 nm. […] The kinetic parameters of ATP hydrolysis were calculated by fitting the initial rates of ATP hydrolysis to the Michaelis–Menten equation using PRISM 4.0 (GraphPad software).

TAPL Y405A mutant = biological target: T2, TAPL Y405A mutant (Mus musculus, UniProt Q9JJ59, Y405A); assay: Microscale thermophoresis, DM-purified Y405A; type: binding; settings: Y405A vs wild-type
T2 construct: thrombin cleavage site (C); eGFP (C); 10XHis (C); made in house; host or cells: Trichoplusia ni High Five (Hi5) insect cells, baculovirus (pVL1393)
T2 sequence (Q9JJ59 143-762 Y405A): T1 sequence (Q9JJ59 143-762) with Y263A
Experimental: Binding of 9-mer peptide (RRYQNSTC^Cy-5L) to DM-purified ΔTMD0 was monitored by microscale thermophoresis as described previously. Briefly, 9-mer peptide was incubated with a 10x molar excess of Cy5 dye (Thermo Fisher Scientific) in 50 mM HEPES–NaOH pH 7.5 at RT for 2 h. The labeled peptide was purified from the excess dye with a desalting column. Cy5-labeled peptide (0.2 μM) was added to serial 2-fold dilutions of protein. The mixtures were incubated for 10 min at RT and loaded onto Monolith NT.115 standard-treated capillaries (NanoTemper Technologies). Thermophoretic movements were induced by infrared laser activation. Subsequent fluorescence changes were monitored with a Monolith NT.115 pico device and plotted against protein concentration. The results were analyzed with MO.Affinity Analysis software.

[2] = parameters: method as in PMID 11867457; settings: cited from earlier work

CCCCCCCC/C=C\CCCCCCCC(=O)O[C@H](COC(=O)CCCCCCCCCCCCCCC)COP(=O)(O)OCCN [POPE, 1-palmitoyl-2-oleoyl-sn-glycero-3-phosphoethanolamine]
aggregation [1]: caused nonspecific aggregation
ΔTMD0 ATPase activity in nanodiscs (mouse TAPL ΔTMD0): no ΔTMD0 activity was detected

CC[N+]1=C(C=CC=CC=C2N(CCCCCC(=O)NCCN3C(=O)CC(SC[C@H](NC(=O)[C@@H](NC(=O)[C@H](CO)NC(=O)[C@H](CC(N)=O)NC(=O)[C@H](CCC(N)=O)NC(=O)[C@H](Cc4ccc(O)cc4)NC(=O)[C@H](CCCNC(=N)N)NC(=O)[C@@H](N)CCCNC(=N)N)[C@@H](C)O)C(=O)N[C@@H](CC(C)C)C(=O)O)C3=O)c3ccc(S(=O)(=O)[O-])cc3C2(C)C)C(C)(C)c2cc(S(=O)(=O)O)ccc21 (stereo partly drawn) [RRYQNSTC^Cy-5L] (H-RRYQNSTC(X1)L-OH; N-terminus and C-terminus assumed)
decrease in peptide affinity (TAPL Y405A mutant): 73 fold

CC(C)CCC[C@@H](C)[C@H]1CC[C@H]2[C@@H]3CC=C4C[C@@H](O)CC[C@]4(C)[C@H]3CC[C@]12C [cholesterol]
time of spontaneous movement across the liposome bilayer [2]: < 1 min
